Laboratory results: a melting point compilation (Tetko et al.; mined from patent text by program, amines drawn as free bases though some values may be those of a salt)

| Compound | melting point [°C] |
| --- | --- |
| CCOC(=O)C1CC(=O)C(NC(C)=O)=C(O)C1 (stereo not drawn) | 112 to 114 |
| Cc1nc(-n2cc(COc3ccccc3)nn2)sc1C(=O)NCc1ccccc1 | 140 to 143 |
| O=c1ccc(-c2nc3ccccc3s2)cn1Cc1ccc(Cl)c(F)c1 | 164 |
| O=C1NC(=O)C(Sc2ccccn2)=C1Sc1ccccn1 | 70 to 72 |
| O=C(NOCC(O)CO)c1cc(Cl)c(F)c(F)c1Nc1ccc(I)cc1Cl (stereo not drawn) | 152 to 154 |
| COc1ccc([N+](=O)[O-])c(CCc2cc(OC)ccc2[N+](=O)[O-])c1 | 193 to 195 |
| CCCCCCCCn1sc(Cl)c(Cl)c1=O | 44 to 47 |
| CN1CCCc2ccc(NC(=O)/C=C/c3ccc(C(C)(C)C)cc3)cc21 | 200 to 202 |
| O=C1N(Cc2ccc(F)cn2)c2ccccc2C12COc1cc3c(cc12)OCCO3 (stereo not drawn) | 174 to 176 |
| O=c1[nH]c2cc(C(F)(F)F)ccc2n1C1CCNCC1 | 198 |
| Cc1cc(C#Cc2ccccc2)nc(Oc2cc(C(F)(F)F)nn2C)c1 | 56 |
| Cn1ncnc1COc1nn2c(-c3ccccc3F)nncc2c1-c1cccc(C#N)c1 | 194 to 196 |
| CC(C)(C)OC(=O)COc1ccc(C(=O)O)cc1OCC(=O)OC(C)(C)C | 118 to 120 |
| O=c1c2ccccc2nc(-n2ccnc2)n1-c1ccccc1 | 163 to 165 |
| Nc1nnc(-c2cc3c(Oc4ccc(Br)cc4)cncc3s2)o1 | 270 to 273 |
| CN(C)c1ncc(-c2cccnc2)cn1 | 295 |
| C[C@@H](n1ccn(-c2ccc(O)cc2)c1=O)[C@](O)(Cn1cncn1)c1ccc(F)cc1F | 93 to 103 |

| Compound | melting point [°C] |
| --- | --- |
| CC(C)(C)Sc1c(-c2ccc(S(C)(=O)=O)cc2)cnn(CC(F)(F)F)c1=O | 186 to 189 |
| CN(C)CC(O)COc1ccc(C=CC(=O)N2CCc3c([nH]c4ccccc34)C2c2ccc3c(c2)CCO3)cc1 (stereo not drawn) | 138 |
| CN1C(=O)C(c2ccc(OC(F)F)cc2)(c2cccc(CCCC#N)c2)N=C1N (stereo not drawn) | 75 |
| O=[N+]([O-])c1ccc(CN2CCCCc3ncccc32)cc1 | 231 to 233 |
| O=C1Nc2ccc(Cl)cc2C(c2ccc3[nH]c(=O)n(CCCO)c3c2)=N[C@H]1Cc1ccccc1Cl | 210 |
| Cn1ncc2c1-c1c(Oc3ccc(-c4ccc(F)cc4)nc3)sc(C(N)=O)c1CC2 | 236 to 237 |
| C=CCN(CC=C)c1nc(NC(=O)OCc2ccccc2)n2oc(=O)nc2n1 | 171 to 173 |
| CC1(C)N(Cc2ccc(C(=O)Cl)cc2)C(=O)C(=O)N1Cc1ccc(C(=O)Cl)cc1 | 232 to 235 |
| CNc1ccc(C)nc1N | 112 to 113 |
| CC(=O)OC1CN=C(C)NC1 (stereo not drawn) | 141 to 146 |
| CCc1nc2ccc3c(c2nc1CC)OC(COS(=O)(=O)c1ccc(C)cc1)CO3 (stereo not drawn) | 132 to 135 |
| COC(=O)c1nc(C#N)ccc1OCc1ccccc1 | 104 to 105 |
| CC(=O)[C@@H]1C/C=C(/C)C/C=C/[C@H](C)[C@H](O[Si](C)(C)C(C)(C)C)[C@@H](C)C(=O)C(C)(C)[C@@H](O[Si](C)(C)C(C)(C)C)CC(=O)O1 | 85 |
| Cc1cc(C)n(CC(C)C)c(=O)c1C#N | 126 to 128 |
| CN1C(=O)C(c2ccncc2)(c2cccc(O)c2)N=C1N (stereo not drawn) | 245 to 247 |
| CCCc1nc(C)cc(=O)n1CCOc1ccc(CC2SC(=O)NC2=O)cc1 (stereo not drawn) | 144 to 146 |
| CCOC(=O)c1c(C)cc2c(=O)n(-c3ccccc3C(=O)O)cnc2c1C | 207 to 210 |

Further lines, results first:

| melting point [°C] | Compound |
| --- | --- |
| 269 to 271 | COc1cc2c(N)nc(N3CCN(C(=O)C4COc5ccccc5O4)CC3)nc2c(OC)c1OC (stereo not drawn) |
| 272 to 274 | C[C@H](NC(=O)c1c[nH]c2ncc(C3CC3)nc12)C(C)(C)O |
| 168 to 171 | O=C(CCc1ccc(NC2=NCCN2)cc1)c1ccc(N2CCOCC2)cc1F |
| 55 to 58 | CC(N)=CC(=O)OCC1CC1 |
| 210 to 212 | O=C1OCCN1CCCN1C(=O)N2C[C@@H](Cc3ccccc3)N=C2c2[nH]c(C3CCCC3)nc21 |
| 152 to 153 | CCOC(=O)C1=C(Nc2ccc(C(=O)OCC)cc2)OCC1=O |
| 110 | Cc1ccsc1CN(O)C(N)=O |
| > 300 | Cc1nc(NC(=O)c2ccc(-c3nn[nH]n3)cc2)sc1C(=O)NCc1ccccc1 |
| 125 | CCN(CC)CC1CCCN(CCNC(=O)N2c3cc(Cl)ccc3C(=O)Nc3cccnc32)C1 (stereo not drawn) |
| 88 to 90 | COCC1(C)Oc2ccc(C#N)cc2C2OC21 (stereo not drawn) |
| 146 to 149 | C=Cn1cc(C(=O)OCC)c(=O)c2cc(F)c(Cl)cc21 |
| 236 to 237 | CCOC(=O)c1cc2cc(F)cnc2n1Cc1ccncc1 |
| 179 to 180 | Nc1cnc2cc3c(cc2c1-c1ccccc1Cl)CCC3 |
| 125 to 132 | O=C(O)CCCCNC(=O)NCCCCC1CCSS1 (stereo not drawn) |
| 228 to 230 | COc1cccc(CNC(=O)c2nc3cccc(OCCc4ccc(C(=O)O)cc4)c3c(=O)[nH]2)c1 |
| 84.5 to 86.5 | CCCC[C@H](F)C(=O)N[C@@H](C)c1ccc([N+](=O)[O-])cc1 |
| 54 to 56 | O=S(=O)(NCCCCCCCCn1ccnc1)c1ccc(Cl)cc1 |
| 242 | CC(=O)n1cc(/C=C2\N=C(c3ccccc3)OC2=O)c2cc(Cl)cnc21 |
| 162 | CS(=O)(=O)C(=C1CN(C(c2ccccc2)c2ccccc2)C1)c1cccc(OC(F)(F)F)c1 |
| 111 to 112 | O=C(O)Cc1ccc2c(c1)CCc1ccccc1S2 |

| melting point [°C] | Compound |
| --- | --- |
| 141 to 143 | CS(=O)(=O)c1ccc(-c2cc(CBr)nn2CC2CCCCC2)cc1 |
| 137 to 142 | O=C1c2cc([N+](=O)[O-])ccc2CC2CCCCN12 (stereo not drawn) |
| 197 | COc1cccc(-c2nc(N)nc(Nc3cccc([N+](=O)[O-])c3)n2)c1 |
| 142 to 145 | COC(=O)c1ccc(-c2nnc(C)o2)s1 |
| 96 | Clc1cc(Cl)c(-n2nccc2Cl)c(Cl)c1 |
| 211 to 213 | O=C(Nc1ccc2nc(CN3CCCCC3)ccc2c1)c1ccc(-c2ccc(Cl)cc2)cc1 |
| 205 to 208 | COC(=O)C1CCC2C3CCC4CC(O)C(Br)CC4(C)C3C(=O)CC12C (stereo not drawn) |
| 157 | S=C1CCCC(c2ccc(Br)cc2)N1 (stereo not drawn) |
| 160 to 162 | S=c1nc(-c2cc(Cl)sc2Cl)[nH]n1Cc1ccccc1 |
| 205 to 206 | NC(=O)c1ccc(Cn2ccc(NC(=S)NCC(F)(F)F)n2)cc1 |
| 97 to 100 | O=Cc1cc2c(cc1O)CCCO2 |
| 117 to 123 | O=C1C2CCCCC2C(=O)N1c1ccc(F)cc1F (stereo not drawn) |
| 163 | O=C(NCc1ccc(C(F)(F)F)c(N2CCCCC2)c1)Nc1cccc2c1CC(O)CC2 (stereo not drawn) |
| 195 to 197 | COCc1nc2c(N)nc3c(c2n1CC(C)(C)OCCS(C)(=O)=O)CCCC3 |
| 115 to 117 | CC(C)(C)c1nc2cc(N3CCCC3)c([N+](=O)[O-])cc2s1 |
| 46 to 47 | C=CCN(C)C(=S)Nc1ccccc1CC(=O)OC |
| 93.5 to 95.5 | CCCCCCOc1ccc2[nH]c(SC(C)(CO)c3ccccc3)cc2c1 (stereo not drawn) |
| > 300 | O=C(O)c1ccnc2[nH]ccc12 |
| 154 to 156 | CCCCc1nc(C(C)(C)O)c(C(=O)OCOC(=O)OC(C)C)n1Cc1ccc(-c2ccccc2C(=O)O)cc1 |
